Experimental data published in ChEMBL document CHEMBL1201862, “PubChem BioAssay data set” (2004).
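All cell lines were grown in 96-well plates and treated with compound for 48 hours. GI50 = concentration required for 50% inhibition of growth.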 The source made the active and inactive calls. Rule as the data show it: active = GI50 up to about 1.1 µM and inactive = higher.

Columns and labels:
Experiment in all cases: NCI-60 cell line screen, 48 h
UACC-62 = tested on: UACC-62
HCT-15 = tested on: HCT-15
Hs-578T = tested on: Hs-578T
SN12C = tested on: SN12C
NCI-H522 = tested on: NCI-H522
OVCAR-8 = tested on: OVCAR-8
OVCAR-3 = tested on: OVCAR-3
SF-295 = tested on: SF-295
NCI/ADR-RES = tested on: NCI/ADR-RES
COLO 205 = tested on: COLO 205
MCF7 = tested on: MCF7
RXF 393 = tested on: RXF 393
NCI-H23 = tested on: NCI-H23
A549 = tested on: A549
OVCAR-5 = tested on: OVCAR-5
OVCAR-4 = tested on: OVCAR-4
HCC 2998 = tested on: HCC 2998
SK-OV-3 = tested on: SK-OV-3
NCI-H460 = tested on: NCI-H460
DU-145 = tested on: DU-145
UACC-257 = tested on: UACC-257
RPMI-8226 = tested on: RPMI-8226
ACHN = tested on: ACHN
Malme-3M = tested on: Malme-3M
M14 = tested on: M14
SK-MEL-2 = tested on: SK-MEL-2
HOP-92 = tested on: HOP-92
SF-539 = tested on: SF-539
SK-MEL-5 = tested on: SK-MEL-5
MDA-MB-435 = tested on: MDA-MB-435
U-251 = tested on: U-251
HOP-62 = tested on: HOP-62
SW-620 = tested on: SW-620
786-0 = tested on: 786-0
T47D = tested on: T47D
IGROV-1 = tested on: IGROV-1
LOX IMVI = tested on: LOX IMVI
SF-268 = tested on: SF-268
MOLT-4 = tested on: MOLT-4
A498 = tested on: A498
CCRF-CEM = tested on: CCRF-CEM
NCI-H226 = tested on: NCI-H226
EKVX = tested on: EKVX
SNB-75 = tested on: SNB-75
KM12 = tested on: KM12
BT-549 = tested on: BT-549
SNB-19 = tested on: SNB-19
SK-MEL-28 = tested on: SK-MEL-28
TK-10 = tested on: TK-10
MDA-N = tested on: MDA-N
MDA-MB-231 = tested on: MDA-MB-231
K562 = tested on: K562
HCT-116 = tested on: HCT-116
HT-29 = tested on: HT-29
PC-3 = tested on: PC-3
UO-31 = tested on: UO-31
CAKI-1 = tested on: CAKI-1
HL-60 = tested on: HL-60

CSc1nc(Cl)c2c(n1)Sc1nc3cc4c(cc3n1C2O)OCCO4 (stereo not drawn)
GI50 (UACC-62): 125 nM (active)
GI50 (HCT-15): 104 nM
GI50 (Hs-578T): 295 nM (active)
GI50 (SN12C): 526 nM (active)
GI50 (NCI-H522): 38.2 nM (active)
GI50 (OVCAR-8): 106 nM (active)
GI50 (OVCAR-3): 137 nM (active)
GI50 (SF-295): 379 nM (active)
GI50 (NCI/ADR-RES): 149 nM (active)
GI50 (COLO 205): 50.9 nM (active)
GI50 (MCF7): 53 nM (active)
GI50 (RXF 393): 354 nM (active)
GI50 (NCI-H23): 390 nM (active)
GI50 (A549): 126 nM (active)
GI50 (OVCAR-5): 4030 nM (inactive)
GI50 (OVCAR-4): 14600 nM (inactive)
GI50 (HCC 2998): 318 nM (active)
GI50 (SK-OV-3): 445 nM (active)
GI50 (NCI-H460): 89.7 nM (active)
GI50 (DU-145): 124 nM (active)
GI50 (UACC-257): 11100 nM (inactive)
GI50 (RPMI-8226): 31.8 nM (active)
GI50 (ACHN): 131 nM (active)
GI50 (Malme-3M): 847 nM (active)
GI50 (M14): 95.1 nM (active)
GI50 (SK-MEL-2): 923 nM (active)
GI50 (HOP-92): 875 nM (active)
GI50 (SF-539): 24.7 nM (active)
GI50 (SK-MEL-5): 70.3 nM (active)
GI50 (MDA-MB-435): 15.8 nM (active)
GI50 (U-251): 223 nM (active)
GI50 (HOP-62): 419 nM (active)
GI50 (SW-620): 15.3 nM (active)
GI50 (786-0): 33.6 nM (active)
GI50 (T47D): 15400 nM (inactive)
GI50 (IGROV-1): 138 nM (active)
GI50 (LOX IMVI): < 16.2 nM (active)
GI50 (SF-268): 459 nM (active)
GI50 (MOLT-4): 34.8 nM (active)
GI50 (A498): 708 nM (active)
GI50 (CCRF-CEM): 24.6 nM (active)
GI50 (NCI-H226): 276 nM (active)
GI50 (EKVX): 15200 nM (inactive)
GI50 (SNB-75): 1740 nM (inactive)
GI50 (KM12): 60 nM (active)
GI50 (BT-549): 489 nM (active)
GI50 (SNB-19): 344 nM (active)
GI50 (SK-MEL-28): 501 nM (active)
GI50 (TK-10): 962 nM (active)
GI50 (MDA-N): 30.8 nM (active)
GI50 (MDA-MB-231): 321 nM (active)
GI50 (K562): 31.8 nM (active)
GI50 (HCT-116): 14.6 nM (active)
GI50 (HT-29): 22.6 nM (active)
GI50 (PC-3): 45 nM (active)
GI50 (UO-31): 112 nM (active)

Cc1cccc2c(N)c3cccc(C(=O)NCC[N+](C)(C)Cc4sc(N5CCOCC5)nc4[N+](=O)[O-])c3nc12
GI50 (UACC-62): 3890 nM (inactive)
GI50 (HCT-15): 1080 nM
GI50 (Hs-578T): 748 nM (active)
GI50 (SN12C): 1650 nM (inactive)
GI50 (NCI-H522): 1120 nM (inactive)
GI50 (OVCAR-8): 2120 nM (inactive)
GI50 (OVCAR-3): 2090 nM (inactive)
GI50 (SF-295): 1100 nM (active)
GI50 (NCI/ADR-RES): 3120 nM (inactive)
GI50 (COLO 205): 1200 nM (inactive)
GI50 (MCF7): 438 nM (active)
GI50 (RXF 393): 4360 nM (inactive)
GI50 (NCI-H23): 2260 nM (inactive)
GI50 (A549): 178 nM (active)
GI50 (OVCAR-5): 1320 nM (inactive)
GI50 (OVCAR-4): 4110 nM (inactive)
GI50 (HCC 2998): 1410 nM (inactive)
GI50 (SK-OV-3): 1820 nM (inactive)
GI50 (DU-145): 4010 nM (inactive)
GI50 (UACC-257): 6900 nM (inactive)
GI50 (RPMI-8226): 3130 nM (inactive)
GI50 (CAKI-1): 344 nM (active)
GI50 (ACHN): 381 nM (active)
GI50 (Malme-3M): 5930 nM (inactive)
GI50 (M14): 2770 nM (inactive)
GI50 (SK-MEL-2): 22600 nM (inactive)
GI50 (HOP-92): 15200 nM (inactive)
GI50 (SF-539): 1120 nM (active)
GI50 (SK-MEL-5): 5010 nM (inactive)
GI50 (MDA-MB-435): 5210 nM (inactive)
GI50 (U-251): 3040 nM (inactive)
GI50 (HOP-62): 491 nM (active)
GI50 (SW-620): 600 nM (active)
GI50 (786-0): 547 nM (active)
GI50 (T47D): 12700 nM (inactive)
GI50 (HL-60): 71 nM (active)
GI50 (IGROV-1): 1250 nM (inactive)
GI50 (LOX IMVI): 685 nM (active)
GI50 (SF-268): 23000 nM (inactive)
GI50 (MOLT-4): 231 nM (active)
GI50 (A498): 11400 nM (inactive)
GI50 (CCRF-CEM): 217 nM (active)
GI50 (NCI-H226): 1510 nM (inactive)
GI50 (EKVX): 4260 nM (inactive)
GI50 (SNB-75): 5860 nM (inactive)
GI50 (KM12): 2430 nM (inactive)
GI50 (BT-549): 13100 nM (inactive)
GI50 (SNB-19): 4820 nM (inactive)
GI50 (SK-MEL-28): 29700 nM (inactive)
GI50 (TK-10): 10300 nM (inactive)
GI50 (MDA-N): 3820 nM (inactive)
GI50 (MDA-MB-231): 2280 nM (inactive)
GI50 (K562): 1160 nM (inactive)
GI50 (HCT-116): 1930 nM (inactive)
GI50 (HT-29): 444 nM (active)
GI50 (PC-3): 3370 nM (inactive)
GI50 (UO-31): 4170 nM (inactive)
